According to ChEMBL document CHEMBL3507680, “University of Dundee, Gates Library screen for HepG2 cell viability”:

Assay: Human HepG2 cell viability assay in 384 well format
Format: toxicity, cell-based
Parameters: dose 125 nL, time 70.5 hour; concentration not given beside the values
Details: HepG2 cells, read-out: Inhibition

| Compound | cytotoxicity at 70.5 h [%] |
| --- | --- |
| CCOc1cc(F)ccc1NS(=O)(=O)c1cc(C)c(C(=O)O)s1 | -8.13 |
| CSCC(C)(O)CNC(=O)c1ccc(Br)cc1F (stereo not drawn) | -5.28 |
| CC(NCc1ccncc1)c1cc(F)ccc1N1CCN(C)CC1 (stereo not drawn) | -4.5 |
| CCC(C)N(C)CCNC(=O)NCc1cccc(-n2cncn2)c1 (stereo not drawn) | -2.22 |
| Cc1cccc(C(=O)NC2CCN(c3cnn(C)c3)C2=O)n1 (stereo not drawn) | 12.5 |
| Fc1ccc2c(c1)C(NCc1nnc3n1CCCCC3)CCCO2 (stereo not drawn) | 3.88 |
| CC(O)CC(C)(C)CNC(=O)NCc1cccc(-n2cncn2)c1 (stereo not drawn) | -7.73 |
| CC(C)(C)OC(=O)N1CCCC[C@H]1C(=O)NCc1nccs1 | -9.82 |
| O=S(=O)(CCN1CCOC(Cn2cncn2)C1)c1ccccc1 (stereo not drawn) | -17.9 |
| Cc1cnc(CN(Cc2ccccc2)CC(O)c2cccs2)cn1 (stereo not drawn) | 7.82 |
| CSCC(C)(O)CNC(=O)c1ccc(Br)cc1C (stereo not drawn) | -9.56 |
| CC(C)c1noc(CCC(=O)NC(C)c2nnc3n2CCCCC3)n1 (stereo not drawn) | -6.86 |
| Cn1cc(CN(Cc2ccccc2)CC(O)c2cccs2)cn1 (stereo not drawn) | -8.92 |
| OC(CN(Cc1ccccc1)Cc1ccncc1)c1cccs1 (stereo not drawn) | 21.6 |
| Cn1ccnc1CNC1CCCN(Cc2noc(C3CC3)n2)C1 (stereo not drawn) | -3.59 |
| O=C(c1cccnc1-n1cncn1)N1CCc2ccccc2C1 | -10.4 |
| CN(CC(=O)N1CCN(c2ncccn2)CC1)c1ccc(Cl)cn1 | -7.47 |
| CCOc1ccc(C(C)NC(=O)N2CCC(C(N)=O)CC2)cc1OC (stereo not drawn) | -10.4 |
| Cc1nn(C)c(C)c1NC(=O)CN1CCc2c(nc(C(C)C)n2C)C1 | -10.5 |
| COc1ccc(C(=O)NS(=O)(=O)c2cncc(Br)c2)cc1OC | -3.31 |
| CCC(O)CN1CCN(C(=O)c2ccnc(N(C)C)c2)CC1 (stereo not drawn) | -11.3 |
| Cn1cccc1C(=O)N1CCC2(CC1)CN(c1ccccc1)C(=O)CO2 | -14.1 |

| Compound | cytotoxicity at 70.5 h [%] |
| --- | --- |
| Cn1cc(N2CC3(CCN(C(=O)c4cccn4C)CC3)OCC2=O)cn1 | -12.8 |
| COCCC1COC2(CCN(C(=O)c3ccccc3)CC2)C1 (stereo not drawn) | -7.59 |
| O=C(Cc1ccsc1)N1CCc2ncc(Cn3cccn3)n2CC1 | -13.8 |
| O=C(c1cccs1)N1CCc2ncc(Cn3cncn3)n2CC1 | -13.5 |
| Cc1cc(C(=O)N2CCC[C@]3(C[C@@H](OCC4CC4)CO3)C2)no1 | -11.6 |
| Cc1cc(C(=O)N2CCC[C@]3(C[C@H](OCC4CC4)CO3)C2)no1 | -0.0994 |
| Cc1nc(NCC2CC2)nc2c1COCC21CCN(CC(=O)N(C)C)C1 (stereo not drawn) | -14.8 |
| Cc1cccc(C(=O)N2CCn3cc(CN4CCCCC4)nc3C2)n1 | -10.3 |
| O=C(c1cocn1)N1CCC[C@]2(C[C@@H](OCC3CC3)CO2)C1 | -7.29 |
| C[C@H]1CN(C(=O)N(C)C)C[C@@]12CCN(c1ccsc1)C2=O | -8.12 |
| CN(Cc1ccncc1)C1CC2(CCN(Cc3ccccn3)CC2)C1 | -6.76 |
| CCOCC(=O)N1CC[C@@H]2O[C@@H](C)C[C@H]2C1 | -11.3 |
| O=C(c1cccs1)N1CCC2(CC1)CN(c1cncnc1)C(=O)CO2 | -12.3 |
| CN(C)[C@@H]1CCN(C(=O)c2ccccn2)[C@H]1Cc1ccncc1 | -13 |
| CCOCC(=O)N1CC[C@H]2O[C@@H](C)C[C@H]2C1 | -12.8 |
| COc1cccc(C(=O)N2CCOC3(CCCN(C(C)=O)C3)C2)c1 (stereo not drawn) | -16.1 |
| COCCC1COC2(CCN(C(=O)c3ccsc3)CC2)C1 (stereo not drawn) | -12.7 |
| COc1ccccc1C(=O)N1CCOC2(CCCN(C(C)=O)C2)C1 (stereo not drawn) | -12.3 |
| CCO[C@@H]1CCN(C(=O)c2cnc(C)cn2)[C@@H]1Cc1cnn(C)c1 | -11.6 |
| COCCO[C@H]1CCN(C(=O)c2ccsc2)[C@H]1Cc1ccncc1 | -9.1 |
| Cn1cc(C[C@H]2[C@@H](O)CCN2C(=O)c2ccc[nH]2)cn1 | -10.8 |
| COCCO[C@H]1CCN(C(=O)c2cnoc2C)[C@H]1Cc1cnn(C)c1 | -5.22 |

| Compound | cytotoxicity at 70.5 h [%] |
| --- | --- |
| Cc1ncnc2c1CCN(C(=O)c1cccn1C)CC2 | -5.38 |
| Cn1cccc1C(=O)N1CCc2ncnc(N3CCOCC3)c2CC1 | -9.14 |
| Cc1cc(CN2CC[C@H]3C(=O)N(c4cccnc4)CCO[C@H]3C2)no1 | -4.94 |
| COCC1CN(C(=O)Cc2ccsc2)Cc2c1cnn2C (stereo not drawn) | 25.8 |
| O=C(c1ccoc1)N1CCn2cnc(COCC3CC3)c2C1 | 4.58 |
| CNC(=O)[C@@]12CCO[C@@H]1CCN(S(=O)(=O)c1cc(C)cc(C)c1)C2 | -13.2 |
| O=C(c1cccs1)N1CC[C@H]2[C@@H]1CCC(=O)N2c1cccnc1 | -11.5 |
| Cn1cc(C[C@H]2[C@H](N3CCOCC3)CCN2C(=O)c2ccoc2)cn1 | -16.3 |
| O=C(c1cnccn1)N1CCc2ncnc(C3CCOC3)c2CC1 (stereo not drawn) | -9.35 |
| O=C(c1ccco1)N1CC[C@@H](N2CCOCC2)[C@@H]1Cc1ccccc1 | -7.17 |
| CNC(=O)[C@@]12CCO[C@@H]1CCN(S(=O)(=O)c1ccccc1C)C2 | -10.5 |
| CNC(=O)[C@@]12CCO[C@@H]1CCN(S(=O)(=O)c1ccccc1)C2 | -6.28 |
| Cn1cc(CN2CCCC3(CCN(c4cccnc4)C3=O)C2)cn1 (stereo not drawn) | 20 |
| CCOCC1CN(C(=O)c2ccco2)Cc2cnn(CC)c21 (stereo not drawn) | 12.3 |
| Cc1noc([C@@H]2CCO[C@@H]3CCN(Cc4nccs4)C[C@@H]32)n1 | 9.78 |
| CCOCC1CN(C(=O)N2CCCC2)Cc2cnn(CC)c21 (stereo not drawn) | -4.21 |
| Cc1nnc(SCC(=O)N2CCc3[nH]nc(C4CCC4)c3C2)o1 | 8.24 |
| COCCN(C)C(C(=O)O)c1ccc(F)c(C)c1 (stereo not drawn) | -2.89 |
| CCC(=O)N1CCCC(C(=O)NCc2noc(Cc3ccccc3)n2)C1 (stereo not drawn) | -12.1 |
| CC(C)N(CCO)C(=O)c1cc(COc2ccc3c(c2)CCCC3)on1 | -10.1 |
| CCCNc1ncc(C2CC(=O)NCc3nc4ccccn4c32)cn1 (stereo not drawn) | -8.46 |
| Cc1cc(C)cc(C(C(=O)O)N(C)CCCN2CCOCC2)c1 (stereo not drawn) | 8.9 |

| Compound | cytotoxicity at 70.5 h [%] |
| --- | --- |
| CC(NC(=O)C1CCN(C(=O)C2CC2)CC1)c1nncn1C(C)C (stereo not drawn) | -4.92 |
| CC(C)(C)c1cc(CN2C[C@H]3CC[C@@H]2CN(Cc2ccccn2)C3)n[nH]1 | -5.84 |
| CCc1ccc2nc(C)cc(C(=O)N[C@@H]3CNC[C@H]3O)c2c1 | 25.1 |
| CCn1cc(CN2CCCC(c3[nH]ncc3-c3ccc(C)cc3)C2)cn1 (stereo not drawn) | -16.8 |
| O=C(c1cc(-c2ccco2)nc2c(Cl)cccc12)N1CCS(=O)(=O)CC1 | -11.9 |
| CNC(=O)CNCC1(O)CCCN(Cc2ccc(F)c(F)c2)C1=O (stereo not drawn) | 29 |
| CC(C)CCN1CC2(CCN(C(=O)C3(C)CC3)CC2)OC1=O | -0.562 |
| O=C(C1COc2ccccc2O1)N1Cc2cnn(CCO)c2C1 (stereo not drawn) | -3.6 |
| CS(=O)(=O)CC1CCCN(c2ncnc3c2Cc2ccccc2OC3)C1 (stereo not drawn) | -9.52 |
| CC(C)Cn1cncc1CNC1CCSC1 (stereo not drawn) | 21.1 |
| Cc1cccc(CN2CCN(C(=O)c3cc(Cl)c[nH]c3=O)CC2)c1 | -4.23 |
| Cc1ccc2nc(C)c(C)c(C(=O)N3CCN(c4nccs4)CC3)c2c1 | -7.96 |
| O=C(c1ccc[nH]1)N1CCn2cc(Cn3cccn3)nc2C1 | -8.4 |
| Cc1cccc(C(=O)N2CCC[C@]3(C[C@@H](OCC4CC4)CO3)C2)n1 | -13.9 |
| O=C(CC1CC1)N1CCc2ncc(Cn3cncn3)n2CC1 | -14.1 |
| COCCC1COC2(CCN(C(=O)c3cccnc3)CC2)C1 (stereo not drawn) | -13 |
| CC(C)CCN1C2(CCN(Cc3nccs3)C2)c2ccccc2S1(=O)=O (stereo not drawn) | -11.4 |
| COCCO[C@H]1CCN(C(=O)c2ccno2)[C@H]1Cc1ccncc1 | -11.9 |
| Cc1ccccc1C(=O)N1Cc2c(Cn3ccnc3)nn(C)c2C1 | -9.48 |
| O=C(C1CCOC1)N1CCC2(CC1)CN(c1ncccn1)CCO2 (stereo not drawn) | 22.2 |
| Cc1cc(CN2CC[C@H]3C(=O)N(c4ccsc4)CCO[C@H]3C2)no1 | -9.15 |
| c1cc(CN2CCCn3cnc(COCC4CC4)c3C2)co1 | -8.86 |

| Compound | cytotoxicity at 70.5 h [%] |
| --- | --- |
| COc1cccc(N2CC3(CCN(Cc4nccn4C)C3)CC2=O)c1 (stereo not drawn) | -16.5 |
| CCN(CC)c1ncnc2c1CCN(CC1CCOCC1)CC2 | -16.3 |
| O=C(C1CC=CC1)N1C[C@@H]2CN(Cc3ccsc3)CCO[C@@H]2C1 | -15.4 |
| CN(C)[C@@H]1CCN(C(=O)c2ccco2)[C@H]1Cc1cnn(C)c1 | -12.7 |
| O=C(c1ccncc1)N1CCc2ncnc(C3CC3)c2CC1 | -14.3 |
| Cn1cc(N2CC3(CCN(Cc4nccn4C)C3)CC2=O)cn1 (stereo not drawn) | -12.4 |
| CN(C)c1ncnc2c1CCN(CC1CCOCC1)CC2 | -15 |
| O=C(CCc1ccccc1)N1C[C@@H]2CN(Cc3ccoc3)CCO[C@@H]2C1 | -11.8 |
| O=S1(=O)c2ccccc2C2(CCN(Cc3cccnc3)C2)N1CC1CC1 (stereo not drawn) | -11.1 |
| CN(Cc1ccco1)[C@@H]1CN(Cc2cnn(C)c2)[C@@H]2CCCO[C@H]12 | -12 |
| CN(Cc1ccco1)[C@@H]1CN(CC2CCOCC2)[C@@H]2CCCO[C@H]12 | -11.5 |
| O=C(c1ccncc1)N1CCCn2c(CN3CCCC3)nnc2C1 | -9.38 |
| Cc1ccc(N2CCO[C@H]3CN(Cc4cc(C)on4)CC[C@H]3C2=O)cn1 | -9.06 |
| COCCN1CCN(Cc2c(C)noc2C)Cc2cccnc21 | -4.72 |
| O=C(NCc1cccnc1)[C@@H]1C[C@H]2[C@H](CCN2c2ncccn2)O1 | -3 |
| O=C(NCc1cccnc1)[C@@H]1C[C@H]2[C@H](CCN2c2ncc(F)cn2)O1 | -4.83 |
| O=C(NCc1cccnc1)[C@@H]1C[C@@H]2CCN(c3ncc(F)cn3)C[C@@H]2O1 | -12.2 |
| O=C1CCC2(CCCN(Cc3nccs3)C2)N1CC1CC1 (stereo not drawn) | 10.7 |
| O=C(NCc1cccnc1)[C@@H]1CC[C@@H]2[C@@H](CCN2c2ncccn2)O1 | 15.1 |
| Cc1ccc(N2CCO[C@H]3CN(Cc4cccs4)C[C@H]32)nn1 | 8.57 |
